Results as given in patent US9708628B2, “Cationic lipid having improved intracellular kinetics” (NOF CORPORATION, priority 2011, dated 2017).

Key:
HT1080 cells [1] = experiment: Inhibitory effect of retinoic acid (RA) on gene expression; type: cell-based; conditions: 0, 5, 7.5, 10 μM RA
Protocol: (§1) MENDs of B-2-4 (Example 4), B-2 (Example 1) were prepared according to [Experimental Example 1] (1), (2), [Experimental Example 18]. For the preparation, PEG2000-DMG was used as PEG lipid, and MEND solutions corresponding to 0.55 mM of the lipid concentration were prepared.
HT1080 cells were plated on a 3.5 cm cell culture dish at 4×10^4 cells/2 mL/dish 24 hr before, various MENDs were diluted with DMEM (FBS 10%+, Phenol red free) containing a final concentration 200 μM of D-luciferin potassium and 0, 5, 7.5, 10 μM RA (sigma) to achieve 1.6 μg/2 mL/dish based on the pDNA amount and transfection was performed. According to the Kronos Dio package insert, the luminescence amount was measured for 2 min every 20 min and taken as the luciferase activity (RLU/2 min).

HT1080 cells [2] = experiment: Intracellular uptake pathway: influence of sucrose, amiloride, filipin on uptake amount; type: cell-based; conditions: 0.3M sucrose, 1 mM amiloride, 3 hr
Protocol: as §1, with “prepared. pDNA was labeled with fluorescence according to the method described in [Experimental Example 15] (2).” for “prepared.”
HT1080 cells were plated on a 6-well plate at 2×10^5 cells/2 mL/well 24 hr before. The medium was changed to DMEM (FBS+) containing filipin at a final concentration of […] 30 min before transfection. The medium was changed to DMEM (FBS+) containing a final concentration of 0.3M sucrose, and 1 mM amiloride 15 min before transfection. For transfection, various MENDs were added to the dish at 1.6 μg/2 mL/dish based on the pDNA amount. 3 hr after the transfection, the intracellular pDNA amount was measured by the method described in [Experimental Example 19] (1).

HT1080 cells [3] = experiment: Intracellular kinetics (nuclear transport), confocal microscopy; type: cell-based; conditions: 3 hr after transfection
Description: For MEND preparation, Rhodamine-labeled pDNA prepared by the method of [Experimental Example 1] (4) was used. For preparation of MEND encapsulating the rhodamine-labeled pDNA, the pDNA solution described in [Experimental Example 1] (1) was completely replaced by rhodamine-labeled pDNA. In addition, the lipid constituting MEND was labeled with fluorescence by the method described in [Experimental Example 1] (3). MENDs having a composition of B-2-4 (Example 4):DOPE:Chol=3:3:4, B-2 (Example 1):SOPE:Chol=5:3:2 were prepared by the method described in [Experimental Example 1] (2). For the preparation, PEG2000-DMG was used as PEG lipid, and MEND solutions corresponding to 0.55 mM of the lipid concentration were prepared.
HT1080 cells were plated on a glass bottom dish at 5×10^4 cells/2 mL/dish 24 hr before. MEND was diluted with DMEM (FBS 10%+) to achieve pDNA 1.6 μg/2 mL and transfected into cells. After 3 hr, hoechst33342 (1 μL) was added and, 10 min later, the cells were washed twice with heparin solution (20 units/mL, 2 mL). Krebs buffer (1 mL) was added, and the image was obtained by a confocal laser scan microscope.

HT1080 cells [4] = experiment: Endosomal escape efficiency (rhodamine-pDNA, Lysotracker Green, 6 hr); type: cell-based; conditions: 6 hr after transfection
Protocol: For MEND preparation, the Rhodamine-labeled pDNA prepared by the method of [Experimental Example 1] (4) was used. When MEND encapsulating rhodamine-labeled pDNA was prepared, 50% of the pDNA solution described in [Experimental Example 1] (1) was replaced by rhodamine-labeled pDNA.
MENDs having a composition of B-2-4 (Example 4):DOPE:Chol=3:3:4, B-2 (Example 1):SOPE:Chol=5:3:2 were prepared by the method described in [Experimental Example 1] (2). For the preparation, PEG2000-DMG was used as PEG lipid, and MEND solutions corresponding to 0.55 mM of the lipid concentration were prepared.
HT1080 cells were plated on a glass bottom dish at 5×10^4 cells/2 mL/dish 24 hr before. MEND was diluted with DMEM (FBS 10%+) to achieve pDNA 1.6 μg/2 mL and transfected into cells. After 5.5 hr, Lysotracker Green (Life technologies) was added at 2 μL/dish. 6 hr after the transfection, the cells were washed twice with heparin (20 units/mL, 2 mL), Krebs buffer (1 mL) was added, and the cells were observed by a confocal laser scan microscope.
Rhodamine-labeled pDNA, endosome/lysosome and nucleus were shown in pseudo colors of red, green and blue, respectively. The endosomal escape efficiency was calculated according to the following formula.

[5] = Particle size and surface potential of siRNA MENDs prepared by t-BuOH injecting method; type: physicochemical; conditions: siRNA MEND, cationic lipid/cholesterol=70/30, DMG-PEG2000 3%
Protocol: A lipid solution in t-BuOH with a composition of cationic lipid/cholesterol=70/30, DMG-PEG2000 3% and a total lipid amount of 3000 nmol/400 μL (7.5 mM) was prepared in a 1.7 mL tube. In a separate 1.7 mL tube, an siRNA solution was prepared by mixing an siRNA aqueous solution containing siRNA (160 μg) and 20 mM malate buffer (pH 4.00, 30 mM NaCl) to total 50 μL. With vigorous stirring of the lipid solution, the siRNA solution was gradually added dropwise, and the mixed solution was taken in a 1 mL syringe. Then, 20 mM malate buffer (pH 4.00, 30 mM NaCl, 2 mL) was added into a 5 mL tube, and the mixed solution was gradually injected with vigorous stirring. Thereafter, the mixture was further diluted with PBS (7 mL) and centrifuged at 1000 g, 30° C. for 10 min in Amicon Ultra-15-100K to a volume of less than 1.5 mL. PBS (15 mL) was added, and the solution was centrifuged again to about 500-1000 μL. Finally, the MEND solution was adjusted by diluting with PBS to the object lipid concentration.
The particle size and surface potential of various MENDs were measured according to the method described in [Experimental Example 2] and the results are shown in Table 6.

## CC1=C(/C=C/C(C)=C/C=C/C(C)=C/C(=O)OCCCN(C)CCSSCCN(C)CCCOC(=O)/C=C(C)/C=C/C=C(C)/C=C/C2=C(C)CCCC2(C)C)C(C)(C)CCC1 [Example B-2-4]
HT1080 cells [1]
  gene expression activity in presence of RA: decreased by RA in a concentration dependent manner
HT1080 cells [2]
  intracellular uptake with sucrose, amiloride, filipin: sucrose- and amiloride-sensitive
HT1080 cells [3]
  intracellular localization: accumulate near the nucleus
HT1080 cells [4]
  endosomal escape efficiency: significantly higher endosomal escape efficiency than B-2

## Cc1c(C)c2c(c(C)c1OC(=O)CCC(=O)OCCCN(C)CCSSCCN(C)CCCOC(=O)CCC(=O)Oc1c(C)c(C)c3c(c1C)CCC(C)(CCCC(C)CCCC(C)CCCC(C)C)O3)CCC(C)(CCCC(C)CCCC(C)CCCC(C)C)O2 (stereo not shown) [Example B-2-5]
[5]
  PDI: 0.076
  size (nm): 110 nm
  zeta (mV): −9.5 mV

## CCCCCCCCCCCCCC(=O)OCCCN(C)CCSSCCN(C)CCCOC(=O)CCCCCCCCCCCCC [Example B-2]
HT1080 cells [1]
  gene expression activity in presence of RA: not decreased
HT1080 cells [2]
  intracellular uptake with sucrose, amiloride, filipin: sucrose- and amiloride-sensitive
HT1080 cells [3]
  intracellular localization: diffused in the cell
